Counter-ions that a name gives are not always drawn.

In the first assay the test system is Candida albicans. The experiment in a line: agar dilution test, Candida albicans. To be noted: 48 h, after 2 d, complete inhibition of 50% of the strains tested, read-out: MIC 50. It counts as cell-based. As for the experimental part: (§1) The compounds of the invention were tested in vitro and in vivo. The in vitro activities were determined by means of the usual agar dilution test. The results after two and five days were expressed as MIC 50 and MIC 90, i.e. the minimum concentrations giving complete inhibition of 50% or 90% of the strains tested in […] and as Potency Ratio (P.R.), i.e. the ratio between the activity of the test compound and the activity of miconazol (= 1).
A general note: In agar dilution the substance is mixed into plates at graded concentrations.
Take `CCC(C)C(=Cn1ccnc1)c1ccc(Cl)cc1Cl.Cl` (stereo not drawn) [III, 1-[2-(2,4-Dichlorophenyl)-3-methyl-1-pentenyl]-1H-imidazole hydrochloride]: the MIC50 is 5 ng/mL.
Same read-out and setting: the value for `Clc1ccc(C(=Cn2ccnc2)C2CCCCC2)cc1` [V, 1-[2-(4-chlorophenyl)-2-cyclohexylethenyl] -lH-imidazole hydrochloride] was 3 ng/mL.
With `Clc1ccc(C(=Cn2ccnc2)C2CCCCC2)c(Cl)c1` [VI, 1-[2-cyclohexyl-2-(2,4-dichlorophenyl)ethenyl]-IH-imidazole hydrochloride], the MIC50 was found to be 4 ng/mL.

The same assay, now with this note: 48 h, after 2 d, complete inhibition of 90% of the strains tested, read-out: MIC 90.
Take `CCC(C)C(=Cn1ccnc1)c1ccc(Cl)cc1Cl.Cl` (stereo not drawn) [III, 1-[2-(2,4-Dichlorophenyl)-3-methyl-1-pentenyl]-1H-imidazole hydrochloride]: the MIC90 amounted to 10 ng/mL.
On the same count and under the same terms, under `Clc1ccc(C(=Cn2ccnc2)C2CCCCC2)cc1` [V, 1-[2-(4-chlorophenyl)-2-cyclohexylethenyl] -lH-imidazole hydrochloride] stands 8 ng/mL; under `Clc1ccc(C(=Cn2ccnc2)C2CCCCC2)c(Cl)c1` [VI, 1-[2-cyclohexyl-2-(2,4-dichlorophenyl)ethenyl]-IH-imidazole hydrochloride], 8 ng/mL.

The assay is the same for the next values; noted with them: 2 d, ratio to activity of miconazol (= 1).
Turning to `CCC(C)C(=Cn1ccnc1)c1ccc(Cl)cc1Cl.Cl` (stereo not drawn) [III, 1-[2-(2,4-Dichlorophenyl)-3-methyl-1-pentenyl]-1H-imidazole hydrochloride], the “Potency Ratio (P.R.) MIC 50” value is reported as 0.7 and the “Potency Ratio (P.R.) MIC 90” value amounted to 0.9.
Consider `Clc1ccc(C(=Cn2ccnc2)C2CCCCC2)cc1` [V, 1-[2-(4-chlorophenyl)-2-cyclohexylethenyl] -lH-imidazole hydrochloride], for which the “Potency Ratio (P.R.) MIC 50” value turned out to be 1.3 and the “Potency Ratio (P.R.) MIC 90” value came out at 1.0.
Turning to `Clc1ccc(C(=Cn2ccnc2)C2CCCCC2)c(Cl)c1` [VI, 1-[2-cyclohexyl-2-(2,4-dichlorophenyl)ethenyl]-IH-imidazole hydrochloride], the “Potency Ratio (P.R.) MIC 50” value was found to be 0.9 and the “Potency Ratio (P.R.) MIC 90” value was determined as 0.7.

Still in this assay, the particulars now being: 120 h, after 5 d, complete inhibition of 50% of the strains tested, read-out: MIC 50.
In the case of `CCC(C)C(=Cn1ccnc1)c1ccc(Cl)cc1Cl.Cl` (stereo not drawn) [III, 1-[2-(2,4-Dichlorophenyl)-3-methyl-1-pentenyl]-1H-imidazole hydrochloride], the MIC50 worked out at 6 ng/mL.
With `Clc1ccc(C(=Cn2ccnc2)C2CCCCC2)cc1` [V, 1-[2-(4-chlorophenyl)-2-cyclohexylethenyl] -lH-imidazole hydrochloride], the MIC50 was found to be 5 ng/mL.
On to `Clc1ccc(C(=Cn2ccnc2)C2CCCCC2)c(Cl)c1` [VI, 1-[2-cyclohexyl-2-(2,4-dichlorophenyl)ethenyl]-IH-imidazole hydrochloride], for which the MIC50 is 5 ng/mL.

The assay is the same for the next values; noted with them: 120 h, after 5 d, complete inhibition of 90% of the strains tested, read-out: MIC 90.
Regarding `CCC(C)C(=Cn1ccnc1)c1ccc(Cl)cc1Cl.Cl` (stereo not drawn) [III, 1-[2-(2,4-Dichlorophenyl)-3-methyl-1-pentenyl]-1H-imidazole hydrochloride], the MIC90 was 11 ng/mL.
On the same count and under the same terms, the value for `Clc1ccc(C(=Cn2ccnc2)C2CCCCC2)cc1` [V, 1-[2-(4-chlorophenyl)-2-cyclohexylethenyl] -lH-imidazole hydrochloride] was 10 ng/mL; that for `Clc1ccc(C(=Cn2ccnc2)C2CCCCC2)c(Cl)c1` [VI, 1-[2-cyclohexyl-2-(2,4-dichlorophenyl)ethenyl]-IH-imidazole hydrochloride] was 11 ng/mL.

The same assay, now with this note: 5 d, ratio to activity of miconazol (= 1).
Turning to `CCC(C)C(=Cn1ccnc1)c1ccc(Cl)cc1Cl.Cl` (stereo not drawn) [III, 1-[2-(2,4-Dichlorophenyl)-3-methyl-1-pentenyl]-1H-imidazole hydrochloride], the “Potency Ratio (P.R.) MIC 50” value was determined as 0.7 and the “Potency Ratio (P.R.) MIC 90” value worked out at 1.2.
Taken in the same sequence, the figures for `Clc1ccc(C(=Cn2ccnc2)C2CCCCC2)cc1` [V, 1-[2-(4-chlorophenyl)-2-cyclohexylethenyl] -lH-imidazole hydrochloride] were 1.1 and 1.1.
For `Clc1ccc(C(=Cn2ccnc2)C2CCCCC2)c(Cl)c1` [VI, 1-[2-cyclohexyl-2-(2,4-dichlorophenyl)ethenyl]-IH-imidazole hydrochloride], the “Potency Ratio (P.R.) MIC 50” value stood at 0.8 and the “Potency Ratio (P.R.) MIC 90” value is on record as 0.6.

The test system of the next assay is Candida albicans strain A 7. Nature of the assay: method A: systemic infection with Candida albicans in mice. The class given is in vivo. To be noted: i.p., three doses daily for 3 days, control animals = 1. As for the experimental part: A. Testing of compounds against systemic infection with Candida albicans in mice.
Female Swiss SPF mice, weighing […], ten animals per group, were challenged intravenously with 0.5 ml Candida albicans strain A 7 suspension containing sufficient yeast cells to kill 50% of the untreated animals within 5 days. The treatment consisted of three doses daily administered for 3 days either orally or intraperitoneally. Infected, non treated mice served as controls for mortality. The number of mice surviving the challenge was recorded daily and the ratio between the "median survival duration (days)" of the treated and untreated mice was determined, the survival duration of the control animals being graded as 1 (IMSD = Index Median Survival Duration).
Turning to `CCC(C)C(=Cn1ccnc1)c1ccc(Cl)cc1Cl.Cl` (stereo not drawn) [III, 1-[2-(2,4-Dichlorophenyl)-3-methyl-1-pentenyl]-1H-imidazole hydrochloride], the “IMSD (Index Median Survival Duration)” value was 3.5.
On the same count and under the same terms, under `Clc1ccc(C(=Cn2ccnc2)C2CCCCC2)cc1` [V, 1-[2-(4-chlorophenyl)-2-cyclohexylethenyl] -lH-imidazole hydrochloride] stands 3.5; under `Clc1ccc(C(=Cn2ccnc2)C2CCCCC2)c(Cl)c1` [VI, 1-[2-cyclohexyl-2-(2,4-dichlorophenyl)ethenyl]-IH-imidazole hydrochloride], 3.7.

The same assay, now with this note: p.o., three doses daily for 3 days, control animals = 1.
Regarding `CCC(C)C(=Cn1ccnc1)c1ccc(Cl)cc1Cl.Cl` (stereo not drawn) [III, 1-[2-(2,4-Dichlorophenyl)-3-methyl-1-pentenyl]-1H-imidazole hydrochloride], the “IMSD (Index Median Survival Duration)” value is on record as 4.1.
`Clc1ccc(C(=Cn2ccnc2)C2CCCCC2)cc1` [V, 1-[2-(4-chlorophenyl)-2-cyclohexylethenyl] -lH-imidazole hydrochloride]: the “IMSD (Index Median Survival Duration)” value was found to be 4.1.
On the same count and under the same terms, under `Clc1ccc(C(=Cn2ccnc2)C2CCCCC2)c(Cl)c1` [VI, 1-[2-cyclohexyl-2-(2,4-dichlorophenyl)ethenyl]-IH-imidazole hydrochloride] stands 3.9.

A further assay has as its system Trichophyton mentagrophytes strain R 177. Nature of the assay: method C: experimental dermatophytic infection in guinea pigs. It counts as in vivo. The settings on record: local treatment, 2% in Plastibase, twice daily for 10 days; scored on 14th day; grades 1-4; untreated animals 4. As for the experimental part: C. Testing of compounds against experimental dermatophytic infection. (Trichophyton mentagrophytes)
Out-bred blanco TNO female guinea pigs, five animals per group, weighing + 350 g, were prepared by depilation high in the middle of the back over an area 2.5 cm in diameter.
Inoculum was prepared from a culture of Trichophyton mentagrophytes strain R 177 on Mycological Agar. The harvested mycelial mat was diluted in a 20% dextrose solution in water and the suspension was smeared over the depilated area.
Local treatment with 2% concentration of the antimycotic in Plastibase started 72 hours after infection and concurrently the application of vehiculum (Plastibase) to the infected animals was initiated. The application was continued for 10 days and consisted of two applications daily of a measured quantity of ointment to the infected area.
Scoring of lesions and the final check was made on the 14th day after the infection was initiated. The lesions were graded as to the following parameters: • 1 = slight whitish scaling, with erythema • 2 = slight whitish or light yellow scaling with solitary haemorrhagias • 3 = thick whitish-yellow crust or scab • 4 = haemorrhagic ulcer or giant haemorrhagic thick scutula (crust).
The final results were recorded as the average of lesion intensities (A.L.I.) for each experimental group (treated with either test compound or reference compound and untreated control).
With `CCC(C)C(=Cn1ccnc1)c1ccc(Cl)cc1Cl.Cl` (stereo not drawn) [III, 1-[2-(2,4-Dichlorophenyl)-3-methyl-1-pentenyl]-1H-imidazole hydrochloride], the “A.L.I. (average of lesion intensities)” value came out at 0.
On the same count and under the same terms, under `Clc1ccc(C(=Cn2ccnc2)C2CCCCC2)c(Cl)c1` [VI, 1-[2-cyclohexyl-2-(2,4-dichlorophenyl)ethenyl]-IH-imidazole hydrochloride] stands 0.4.

The test system of a further assay is Candida albicans strain A 7. Nature of the assay: method B: vaginitis candidamycetica in mice (vaginal reduction). To be noted: local intravaginal treatment in Plastibase, two applications daily for four days, clotrimazol = 100%. It counts as in vivo. As for the experimental part: Female Swiss SPF mice, weighing 19-21 g, fifteen animals per group, following an intramuscular premedication by Dimenformon prolongatum, were inoculated intravaginally with +5.105 CFU of Candida albicans strain A 7, harvested from a culture on Mycological Agar and suspended in physiological saline.
The treatment commenced 72 hours after infection when the candidiasis had reached its peak. A four day local treatment period was employed, consisting of two applications daily of 0.02 ml of antimycotics in Plastibase intravaginally. Alternatively, the test compound was administered orally in three doses daily for three days.
On the seventh day after infection the mice were killed, the vagina was excised and homogenized in saline and cultivated on Mycological Agar. The yeast cells were then counted and expressed as CFU/vagina. Results were analysed statistically using the T-test. The results were compared with those obtained with clotrimazol, the action of which was considered as 100%.
`CCC(C)C(=Cn1ccnc1)c1ccc(Cl)cc1Cl.Cl` (stereo not drawn) [III, 1-[2-(2,4-Dichlorophenyl)-3-methyl-1-pentenyl]-1H-imidazole hydrochloride] gave a vag.red. % of 136%.
On the same count and under the same terms, the value for `Clc1ccc(C(=Cn2ccnc2)C2CCCCC2)c(Cl)c1` [VI, 1-[2-cyclohexyl-2-(2,4-dichlorophenyl)ethenyl]-IH-imidazole hydrochloride] was 97%.

Still in this assay, the particulars now being: p.o., three doses daily for three days, clotrimazol = 100%.
Take `Clc1ccc(C(=Cn2ccnc2)C2CCCCC2)cc1` [V, 1-[2-(4-chlorophenyl)-2-cyclohexylethenyl] -lH-imidazole hydrochloride]: the vag.red. % is 150 (p.o.) %.
Still for that read-out and setting: under `Clc1ccc(C(=Cn2ccnc2)C2CCCCC2)c(Cl)c1` [VI, 1-[2-cyclohexyl-2-(2,4-dichlorophenyl)ethenyl]-IH-imidazole hydrochloride] stands 52%.

A further assay relates to Trichophyton spp. The experiment in a line: agar dilution test, Trichophyton spp. To be noted: 5 d, ratio to activity of miconazol (= 1). The class given is cell-based. As for the experimental part: as §1
Take `CCC(C)C(=Cn1ccnc1)c1ccc(Cl)cc1Cl.Cl` (stereo not drawn) [III, 1-[2-(2,4-Dichlorophenyl)-3-methyl-1-pentenyl]-1H-imidazole hydrochloride]: the “Potency Ratio (P.R.) MIC 50” value was found to be 1.7 and the “Potency Ratio (P.R.) MIC 90” value worked out at 0.8.
On to `Clc1ccc(C(=Cn2ccnc2)C2CCCCC2)cc1` [V, 1-[2-(4-chlorophenyl)-2-cyclohexylethenyl] -lH-imidazole hydrochloride], for which the “Potency Ratio (P.R.) MIC 50” value was determined as 0.8 and the “Potency Ratio (P.R.) MIC 90” value was determined as 0.6.
Take `Clc1ccc(C(=Cn2ccnc2)C2CCCCC2)c(Cl)c1` [VI, 1-[2-cyclohexyl-2-(2,4-dichlorophenyl)ethenyl]-IH-imidazole hydrochloride]: the “Potency Ratio (P.R.) MIC 50” value was 1.9 and the “Potency Ratio (P.R.) MIC 90” value came to 1.0.
